Reference: patent US8530388B2, “Cyclopentadione derived herbicides” (Syngenta Limited, priority 2009, dated 2013)

Tests used:
Assay type in all cases: in vivo
Avena fatua (AVEFA) [1] = experiment: Pre-emergence herbicidal activity, glasshouse pot test; details: 312 h, Rate 250 g/ha, sprayed one day after sowing, evaluated after 13 days, 100=total damage to plant, 0=no damage to plant
Experimental: (§1) Seeds of a variety of test species were sown in standard soil in pots. After cultivation for one day (pre-emergence) or after 8 days cultivation (post-emergence) under controlled conditions in a glasshouse (at 24/16° C., day/night; 14 hours light; 65% humidity), the plants were sprayed with an aqueous spray solution derived from the formulation of the technical active ingredient in acetone/water (50:50) solution containing 0.5% Tween 20 (polyoxyethelyene sorbitan monolaurate, CAS RN 9005-64-5). The test plants were then grown in a glasshouse under controlled conditions in a glasshouse (at 24/16° C., day/night; 14 hours light; 65% humidity) and watered twice daily. After 13 days for pre and post-emergence, the test was evaluated (100=total damage to plant; 0=no damage to plant). Test plants: Setaria faberi (SETFA), Lolium perenne (LOLPE), Alopecurus myosuroides (ALOMY), Echinochloa crus-galli (ECHCG), and Avena fatua (AVEFA) Pre-Emergence Activity

[2] = tested on: Echinochloa crus-galli (ECHCG); experiment: as above; details: 312 h, Rate 250 g/ha, sprayed one day after sowing, evaluated after 13 days, 100=total damage to plant, 0=no damage to plant
Experimental: as §1

[3] = tested on: Alopecurus myosuroides (ALOMY); experiment: as above; details: 312 h, Rate 250 g/ha, sprayed one day after sowing, evaluated after 13 days, 100=total damage to plant, 0=no damage to plant
Experimental: as §1

Lolium perenne (LOLPE) [4] = experiment: as above; details: 312 h, Rate 250 g/ha, sprayed one day after sowing, evaluated after 13 days, 100=total damage to plant, 0=no damage to plant
Experimental: as §1

Avena fatua (AVEFA) [5] = experiment: Post-emergence herbicidal activity, glasshouse pot test; details: 312 h, rate 250 g/ha, evaluated after 13 days, read-out: Post-emergence activity, AVEFA (100=total damage to plant; 0=no damage to plant)
Experimental: as §1, with “plant).” for “plant). Test plants: Setaria faberi (SETFA), Lolium perenne (LOLPE), Alopecurus myosuroides (ALOMY), Echinochloa crus-galli (ECHCG), and Avena fatua (AVEFA) Pre-Emergence Activity”
(§2) Test plants: Setaria faberi (SETFA), Lolium perenne (LOLPE), Alopecurus myosuroides (ALOMY), Echinochloa crus-galli (ECHCG), and Avena fatua (AVEFA)

[6] = tested on: Echinochloa crus-galli (ECHCG); experiment: as above; details: 312 h, rate 250 g/ha, evaluated after 13 days, read-out: Post-emergence activity, ECHCG (100=total damage to plant; 0=no damage to plant)
Experimental: as §1, with “plant).” for “plant). Test plants: Setaria faberi (SETFA), Lolium perenne (LOLPE), Alopecurus myosuroides (ALOMY), Echinochloa crus-galli (ECHCG), and Avena fatua (AVEFA) Pre-Emergence Activity”
as §2

[7] = tested on: Alopecurus myosuroides (ALOMY); experiment: as above; details: 312 h, rate 250 g/ha, evaluated after 13 days, read-out: Post-emergence activity, ALOMY (100=total damage to plant; 0=no damage to plant)
Experimental: as §1, with “plant).” for “plant). Test plants: Setaria faberi (SETFA), Lolium perenne (LOLPE), Alopecurus myosuroides (ALOMY), Echinochloa crus-galli (ECHCG), and Avena fatua (AVEFA) Pre-Emergence Activity”
as §2

Lolium perenne (LOLPE) [8] = experiment: as above; details: 312 h, rate 250 g/ha, evaluated after 13 days, read-out: Post-emergence activity, LOLPE (100=total damage to plant; 0=no damage to plant)
Experimental: as §1, with “plant).” for “plant). Test plants: Setaria faberi (SETFA), Lolium perenne (LOLPE), Alopecurus myosuroides (ALOMY), Echinochloa crus-galli (ECHCG), and Avena fatua (AVEFA) Pre-Emergence Activity”
as §2

SMILES	pest or weed control at 250 g/ha (Avena fatua (AVEFA) [1]) [%]	pest or weed control at 250 g/ha [2] [%]	pest or weed control at 250 g/ha [3] [%]	pest or weed control at 250 g/ha (Lolium perenne (LOLPE) [4]) [%]	pest or weed control at 250 g/ha (Avena fatua (AVEFA) [5]) [%]	pest or weed control at 250 g/ha [6] [%]	pest or weed control at 250 g/ha [7] [%]	pest or weed control at 250 g/ha (Lolium perenne (LOLPE) [8]) [%]
CCc1ccc(-c2ccc(Cl)c(Cl)c2Cl)cc1C1=C(O)CCC1=O [Compound T-20]	0	30	0	10	10	70	20	20
CCc1ccc(-c2cc(F)c(Cl)c(F)c2)cc1C1=C(O)CCC1=O [Compound T-21]	10	40	40	100	20	40	30	30
CCc1ccc(-c2cc(Cl)c(F)cc2F)cc1C1=C(O)CCC1=O [Compound T-22]	0	30	0	10	10	60	30	10
O=C1CCC(O)=C1c1cc(-c2ccc(Cl)cc2Cl)ccc1C1CC1 [Compound T-24, 2-(2′,4′-dichloro-4-cyclopropylbiphenyl-3-yl)-cyclopentane-1,3-dione]	0	80	0	50	10	100	30	50
